# Test results taken from PubChem BioAssay (NCI).
# “And” between values parts separate entries of the source, which are not always exact repeats. Equal values may be shown once.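 Assay format: 96-well plates, 48-hour exposure. Abbreviation: GI50, concentration required for 50% inhibition of growth. TGI denotes the concentration required for complete inhibition of growth.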
# Legend:
# Experiment in all cases: NCI tumour cell line growth inhibition, 48 h
# BT-549 breast = tested on: BT-549 breast
# CCRF-CEM leukemia = tested on: CCRF-CEM leukemia
# HCT-116 colon = tested on: HCT-116 colon
# IGROV1 ovarian = tested on: IGROV1 ovarian
# K-562 leukemia = tested on: K-562 leukemia
# LOX IMVI melanoma = tested on: LOX IMVI melanoma
# M14 melanoma = tested on: M14 melanoma
# SK-MEL-28 melanoma = tested on: SK-MEL-28 melanoma
# SNB-75 CNS = tested on: SNB-75 CNS
# T-47D breast = tested on: T-47D breast
# NCI-H226 lung = tested on: NCI-H226 lung
SMILES,TGI (BT-549 breast) [µM],TGI (CCRF-CEM leukemia),TGI (HCT-116 colon) [µM],TGI (IGROV1 ovarian) [µM],TGI (K-562 leukemia) [µM],TGI (LOX IMVI melanoma) [µM],TGI (M14 melanoma) [µM],TGI (SK-MEL-28 melanoma) [µM],TGI (SNB-75 CNS) [µM],TGI (T-47D breast) [µM],TGI (NCI-H226 lung),GI50 (CCRF-CEM leukemia) [µM],GI50 (LOX IMVI melanoma) [µM],GI50 (NCI-H226 lung) [µM],GI50 (K-562 leukemia) [µM],GI50 (SK-MEL-28 melanoma) [µM],GI50 (HCT-116 colon) [µM],GI50 (M14 melanoma) [µM],GI50 (T-47D breast) [µM]
COc1cc(Br)cc2cc(-c3cn4ccsc4n3)c(=O)oc12,50.7,> 100 µM,> 100,> 100,> 100,> 100,> 100,> 100,> 100,> 100,,,,,,,,,
ClCCN1CCC2(CC1)SSC1(CCN(CCCl)CC1)S2,> 100,55.6 µM,> 100,> 100,> 100,> 100,> 100,> 100,> 100,,,,,,,,,,
CN1C(=O)C2CCC(=O)N2c2cccnc21 (configuration not stated),> 100,> 100 µM,> 100,> 100,> 100,> 100,,> 100,,> 100,> 100 µM,,,,,,,,
CC(C)CCS(=O)(=O)OCCCCOS(=O)(=O)CCC(C)C,,> 100 µM,> 100,> 100,> 100,> 100,29.6,> 100,> 100,,> 100 µM,,,,,,,,
CC(=O)NC(Cc1ccc(O)cc1)C(=O)O (configuration not stated),> 100,,> 100,> 100,> 100,> 100,> 100,> 100,,> 100,> 100 µM,,,,,,,,
NC(N)=N/N=C/c1c(-c2ccc(N)cc2)nc2sccn12,> 100,> 100 µM,59.2,> 100,66.1,> 100,57.9,> 100,,90.3,> 100 µM,,,,,,,,
O=c1ccc(-c2ccccc2)n[nH]1,> 100,> 100 µM,> 100,> 100,> 100,> 100,> 100,> 100,,> 100,,,,,,,,,
Nc1nc(Cl)cc(NCC2(CO)CC(=O)C2)n1,> 100,> 100 µM,> 100,> 100,> 100,> 100,,> 100,,> 100,> 100 µM,,,,,,,,
COc1ccc2c(c1)/C(=C/CCN(C)C)c1ccccc1S2,,> 100 µM,> 100,,> 100,> 100,> 100,38.8,> 100,> 100,> 100 µM,,,,,,,,
O=C(NC(=O)c1ccccc1[N+](=O)[O-])Nc1ccc(Oc2ncc(Br)cn2)c(Cl)c1,,,,,,> 100,,0.0733,,,0.0292 µM and < 0.0313 µM,< 0.0194,< 0.0208,< 0.0175,,,,,
COc1ccc(-c2cc(O)c3nc4ccccc4n3c2)cc1,> 100,> 100 µM,> 100,> 100,> 100,> 100,> 100,> 100,> 100,,> 100 µM,,,,,,,,
COc1ccc(-c2c(C#N)c(-c3ccc(C)cc3)n(NS(=O)(=O)c3ccc(C)cc3)c(=O)c2C#N)cc1,> 100,81.6 µM,> 100,> 100,> 100,> 100,> 100,> 100,> 100,,> 100 µM,,,,,,,,
COc1cc(C2c3cc4c(cc3OC(N3CCOCC3)C2C)OCO4)ccc1O (configuration not stated),> 100,> 91.8 µM,50.4,> 100,33,> 58.9,> 63.5,> 100,> 58,> 78.2,,,,,,,,,
CCC(C(=O)O)c1ccc(OC)cc1 (configuration not stated),,> 100 µM,> 100,> 100,> 100,> 100,> 100,> 100,> 100,,> 100 µM,,,,,,,,
CCCCC#C[I+]c1ccccc1,,24.4 µM,30,36.4,40.3,26.9,29,31.8,30.1,,30.7 µM,,,,,,,,
O=C1CCCSC(=O)N1Cc1ccccc1,,> 100 µM,> 100,> 100,,> 100,> 100,> 100,> 100,> 100,> 100 µM,,,,,,,,
CCOC(=O)c1csc(NC(=O)CN2CCOCC2)n1,,> 100 µM,,> 100,> 100,> 100,> 100,> 100,> 100,> 100,,,,,,,,,
Cc1cn2c(/C=N/N=C(N)N)c(-c3cccc([N+](=O)[O-])c3)nc2s1,3.3,> 100 µM,> 100,19.7,,2.22,4.36,2.55,,,,,,,,,,,
Cc1ccc(C(=O)O)cc1S(=O)(=O)Nn1cnc2ccc(S(=O)(=O)Nc3ccccc3C(=O)O)cc2c1=O,> 100,> 100 µM,> 100,> 100,> 100,> 100,> 100,> 100,> 100,,> 100 µM,,,,,,,,
O=[N+]([O-])c1ccc2c(c1)c(OCc1ccccc1)nn2Cc1ccccc1,> 100,> 100 µM,,> 100,> 100,> 100,> 100,> 100,,> 100,> 100 µM,,,,,,,,
Cc1cc(Cc2cc(C)c(N)cc2N)c(N)cc1N,> 100,,> 100,> 100,> 100,> 100,> 100,> 100,> 100,> 100,> 100 µM,,,,,,,,
N#CC1(C#N)N[C@@H](c2ccsc2)[C@H]2C(=O)N(c3ccccc3)C(=O)[C@H]21,> 100,,> 100,> 100,> 100,> 100,,> 100,> 100,> 100,> 100 µM,,,,,,,,
O=C(N/N=C(/COc1ccc(Cl)cc1)N=Cc1ccncc1)c1ccncc1,> 100,> 100 µM,> 100,> 100,> 100,> 100,> 100,> 100,,> 100,> 100 µM,,,,,,,,

SMILES,TGI (BT-549 breast) [µM],TGI (CCRF-CEM leukemia),TGI (HCT-116 colon) [µM],TGI (IGROV1 ovarian) [µM],TGI (K-562 leukemia) [µM],TGI (LOX IMVI melanoma) [µM],TGI (M14 melanoma) [µM],TGI (SK-MEL-28 melanoma) [µM],TGI (SNB-75 CNS) [µM],TGI (T-47D breast) [µM],TGI (NCI-H226 lung),GI50 (CCRF-CEM leukemia) [µM],GI50 (LOX IMVI melanoma) [µM],GI50 (NCI-H226 lung) [µM],GI50 (K-562 leukemia) [µM],GI50 (SK-MEL-28 melanoma) [µM],GI50 (HCT-116 colon) [µM],GI50 (M14 melanoma) [µM],GI50 (T-47D breast) [µM]
O=C(CCN1CCCCC1)C(=Cc1ccccc1)C(=O)CCN1CCCCC1,,7.36 µM and 51.2 µM,> 100,> 100,> 55.2,> 100,,> 100,> 100,,> 100 µM,2.44,3.39,,3.46,> 100,,,
C=C(C)C(=O)OC1C/C(CO)=C\C(O)C/C(C)=C/C2OC(=O)C(=C)C21 (configuration not stated),,36.6 µM,37.1,> 100,58.2,35,40.6,33.4,> 100,,79.5 µM,,,,,,,,
C[C@@H]1CC[C@]2(C(=O)O)CC[C@]3(C)C(=CC[C@@H]4[C@@]5(C)CC[C@H](O)C(C)(C)[C@@H]5CC[C@]43C)[C@@H]2[C@]1(C)O,28.2,23.2 µM,24.6,30.7,19.6,29.5,8.1,26.9,28.1,32.9,,,,,,,,,
O=C1c2ccccc2-c2c1c1ccccc1c(=O)n2CCNCCNCCNCCn1c2c(c3ccccc3c1=O)C(=O)c1ccccc1-2,,,> 100,,,0.572,3.5,,,> 100,,,0.0709,,0.253,,0.111,1.61,2.95
Cc1n[nH]c(=O)n1/N=C/c1ccc(Cl)cc1,> 100,94.8 µM,> 100,,> 100,,> 100,> 100,> 100,> 100,,,,,,,,,
COC(=O)c1c(C)cccc1C1CN=NC12Cc1ccc(C)cc1C2=O (configuration not stated),,> 100 µM,74,> 100,> 100,> 100,> 100,> 100,> 100,49.8,> 100 µM,,,,,,,,
C1CN(c2nc3c(nnc4nc(N5CCOCC5)sc43)s2)CCO1,> 100,> 100 µM,> 100,> 100,> 100,> 100,> 100,> 100,,> 100,> 100 µM,,,,,,,,
Cc1ccc(-c2n[nH]c(=O)n2N2C(=O)c3ccccc3C2=O)cc1,> 100,,> 100,> 100,> 100,> 100,> 100,> 100,> 100,> 100,> 100 µM,,,,,,,,
CCOC(=O)C1(C/C=C/CBr)Cc2ccccc2C1=O (configuration not stated),8.86,5.36 µM,15.8,10.3,4.84,3.23,11.6,20.8,31.9,12.2,,,,,,,,,
CN(C)C(=O)O/N=C1/C(c2c(O)[nH]c3ccccc23)=Nc2ccccc21,43.7,> 100 µM,> 100,64,> 100,> 100,> 100,> 100,8.69,50.6,,,,,,,,,
COC(=O)C([C@H](NC1(c2ccccc2)c2ccccc2-c2ccccc21)C(=O)OC)N(NC(=O)OCc1ccccc1)C(=O)OCc1ccccc1 (mixture of isomers),> 100,> 100 µM,> 100,> 100,> 100,> 100,> 100,> 100,,> 100,,,,,,,,,
CC1CCC(n2c3cnccc3c3cnc(Nc4ccc5c(n4)CCN(C(=O)CO)C5)nc32)CC1 (configuration not stated),,> 100 µM,> 100,,,> 100,> 100,,,,,0.448,0.496,,,,0.462,0.681,
N#Cc1c(N2CCCC2)ncn(-c2ccccc2)c1=O,,> 100 µM,> 100,> 100,> 100,> 100,> 100,> 100,> 100,> 100,> 100 µM,,,,,,,,
Cc1ccc(Cl)c2[nH]c(-c3ccccc3)cc(=O)c12,,> 100 µM,> 100,> 100,> 100,> 100,> 100,> 100,> 100,> 100,> 100 µM,,,,,,,,
COCO[C@@H]1C[C@H]2C(=O)Nc3ccccc3C(=O)N2C1,> 100,,> 100,> 100,,> 100,> 100,> 100,> 100,> 100,> 100 µM,,,,,,,,
CCOC(=O)c1cn2c(n1)sc1cccc(C)c12,> 100,,> 100,> 100,,> 100,> 100,,> 100,,> 100 µM,,,,,,,,
C=C1C(=O)O[C@@H]2C(=O)[C@@H](C)CCC/C(C)=C/CC[C@@]3(C)O[C@@H]3C[C@@H]12,,30.2 µM,96.1,45.7,34.8,36.9,> 100,> 100,56.8,> 100,> 100 µM,,,,,,,,
CC(=O)O[C@@H]1[C@H](C(C)C)[C@@H](OC(C)=O)C/C(C)=C/CC[C@]2(C)O[C@@H]12,> 100,,> 100,> 100,> 100,> 100,> 100,> 100,> 100,> 100,> 100 µM,,,,,,,,
COc1ccc(N/N=C2\CCOc3ccc(C)cc3C2=O)cc1,87.5,> 100 µM,> 100,> 100,> 100,30.9,> 100,> 100,,42.4,90.7 µM,,,,,,,,
Cc1nc2n(c1/C=C1/C(=O)Nc3cccc(Cl)c31)CCS2,98.7,> 100 µM,> 100,> 100,> 100,> 100,> 100,> 100,37.5,54.9,,,,,,,,,
CC(C)(C)OC(=O)NCCCCC1NC(=O)[C@@H]2Cc3c([nH]c4ccccc34)C(C3CCCCC3)N2C1=O (some centres not stated),> 100,,> 100,> 100,> 100,> 100,> 100,> 100,,> 100,> 100 µM,,,,,,,,
O=C1CCCc2cc3c(cc21)CC1(Cc2ccccc2C1)C3,,,13.6,> 100,7.74,28.6,25.3,,3,96.9,12.8 µM,,,,,,,,
